Results from US20150250864A1, “ANTI-CANCER VACCINES” (Board of Regents, The University of Texas System, priority 2012, published 2015).

How the values were obtained:
Assay type in all cases: cell-based, human
[1] = tested on: T cells in PBMCs; experiment: Granzyme B release by ELISA from PBMC stimulated with peptides or protein; conditions: breast cancer patient (BC243) vs 3 normal donors
Source text: (§1) FIG. 19. T cell stimulation by HERV-K peptides. Peptides (p73-76 and p18-135) or HERV-K SU fusion proteins were used to stimulate PBMC and evaluated in vitro for their ability to stimulate T cells in PBMCs from healthy subjects and/or cancer patients, based on Granzyme B (Top panel) and interlukin-2 (IL-2; bottom panel) release by ELISA. OD values of Granzyme B or IL-2 release were compared between normal donors (ND427478, ND329966, and ND341277) and cancer patients (BC243 and OC212).
(§2) Cancer patients were enrolled to evaluate HERV-K as a tumor associated antigen target. Patients provided written informed consent as part of an approved protocol (LAB04-0083) at MD Anderson Cancer Center prior to commencing the studies. […] HLA-A*02 expression in PBMCs obtained from cancer patients and healthy subjects was determined by flow cytometry with PE Mouse anti-human HLA-A2 mAb BB7.2 (BD Pharmingen; San Diego, Calif., USA). […] After 14 days of culture, the supernatants from cell culture media (PBMC pulsed with peptides or proteins) were harvested and tested for their ability to produce IFN-gamma or IL-2, and granzyme B release was also determined by enzyme-linked immunosorbent assay (ELISA) assay. […] Absorbance was measured after 10 min of incubation in the dark and the plate was read on a Wallac Victor 2 V Microplate Reader (PerkinElmer, Waltham, Mass.). […]

[2] = tested on: T cells in PBMCs; experiment: IL-2 release by ELISA from PBMC stimulated with peptides or protein; conditions: normal donors vs cancer patients
Source text: as §1, §2

[3] = tested on: T cells in PBMCs; experiment: IFN-γ release by ELISA from PBMC stimulated with peptides or protein; conditions: for IFN-γ release (OD values): stimulated PBMC, FIG. 21A
Source text: FIG. 17. T cell stimulation by HERV-K peptides. Peptides (p73-76 and p18-135) or HERV-K SU fusion proteins were used to stimulate PBMC and evaluated in vitro for their ability to stimulate T cells in PBMCs from healthy subjects (ND1007083; left) and/or cancer patients (BC 243; right), based on interferon-γ(IFN-γ) release by ELISA. KLH peptide and GST protein were used as controls. Other negative controls included media only, DMSO, and PBS.
FIG. 18. T cell stimulation by HERV-K peptides. Peptides (p73-76: left; and p18-135: middle) or HERV-K SU fusion proteins (right) were used to stimulate PBMC and evaluated in vitro for their ability to stimulate T cells in PBMCs from healthy subjects and/or cancer patients (BC 243; middle), based on interferon-γ (IFN-γ) release by ELISA. OD values of interferon-γ (IFN-γ) release were compared between normal donors (ND447549, ND1001366, and ND1007083) and cancer patients (OC222, OC 210, OC212, and BC243). OC is ovarian cancer and BC is breast cancer
FIGS. 21A-C. T Cell Stimulation. 9 mer Peptides (HERVK-3, HERVK-4, HERVK-11, and HERVK-18; see Table 1), p73-76 and p18-135 (Table 1 178 and 179), or HERV-K SU fusion proteins were used to stimulate PBMC and evaluated in vitro for their ability to stimulate T cells in PBMCs from healthy subjects and/or cancer patients, based on IFN-γ and Granzyme B release by ELISA. (FIG. 21A) OD values of IFN-γ release were compared in a normal donor (ND291812). (FIG. 21B) OD values of IFN-γ release were compared between a normal donor (ND291817) and an ovarian cancer patient (OC153). (FIG. 21C) OD values of Granzyme B release were compared between a normal donor (ND291817) and an ovarian cancer patient (OC153). Each dot represents an individual clone. Negative controls measured release of effector molecules from cancer cells after treatment with supernatants obtained from PBMCs without stimulation with HERV-K peptides or protein; positive controls were stimulated with PMA/ONO.
Cancer patients were enrolled to evaluate HERV-K as a tumor associated antigen target. Patients provided written informed consent as part of an approved protocol (LAB04-0083) at MD Anderson Cancer Center prior to commencing the studies. Normal healthy donor control blood samples were obtained from Gulf Coast Regional Blood Center, Houston Tex. 40 mL of peripheral blood was obtained from each patient, and peripheral blood mononuclear cells (PBMCs) were isolated by density gradient centrifugation using Histopaque-1077 (Sigma-Aldrich; USA). HLA-A*02 expression in PBMCs obtained from cancer patients and healthy subjects was determined by flow cytometry with PE Mouse anti-human HLA-A2 mAb BB7.2 (BD Pharmingen; San Diego, Calif., USA). Mouse IgG2b was used as an isotype control. PBMCs (5×10^5 cells/well) from either healthy subjects or cancer patients were incubated with Peptide #18-135 ([…]; SEQ ID NO: 178), Peptide #73-76 ([…]; SEQ ID NO: 179) or KLH as control peptide) or proteins (HERV-K env SU protein or GST protein as control) at concentrations of 40 μg/mL in 96-well U-bottom microplates (BD; Franklin Lakes, N.J., USA) in 100 μL of T-cell medium (TCM), consisting of RPMI 1640 (Mediatech; Manassas, Va., USA), 10% human AB serum (Valley Biomedical, Winchester, USA), […] 2-mercaptoethanol, 100 IU/mL interleukin-2 (IL-2), and 0.1 mM MEM nonessential amino acid solution (Invitrogen; Grand Island, N.Y., USA). Half of the TCM was removed and replaced with fresh TCM containing peptides (20 μg/mL) on day 7. After 14 days of culture, the supernatants from cell culture media (PBMC pulsed with peptides or proteins) were harvested and tested for their ability to produce IFN-gamma or IL-2, and granzyme B release was also determined by enzyme-linked immunosorbent assay (ELISA) assay. In order to detect the secreted cytokine in this assay, high-binding plates were coated with 5 μg/ml anti-IFN-γ (Mabtech, Stockholm, Sweden) diluted in PBS buffer at 4° C. overnight. […]

[4] = tested on: IVS cells; experiment: IFN-γ ELISPOT of IVS cells stimulated with HERV-K SU or TM antigen; conditions: ovarian cancer patient compared with normal female donor(s)
Source text: FIGS. 2A-D. IFN-γ ELISPOT was used to determine HERV-K-specific T cell response. (FIG. 2A) More spots (red box) were detected in IVS cells (DC+KSU) from an ovarian cancer patient with moderately to poorly differentiated adenocarcinoma, in comparison to three normal female donors (ND263559, 273010, and 273011; black boxes) stimulated with a single HERV-K SU protein. […] (FIG. 2B) More spots (red box for KSU and green box for KTM) were detected in IVS cells (DC+KSU) from an ovarian cancer patient (Acc 153) with high grade papillary serous carcinoma before surgery (0 month) or after surgery (6 months), compared to one normal donor (ND 273011) stimulated one time with HERV-K SU protein. IVS cells were generated from PBMC stimulated with a single HERV-K SU or TM antigen. No spot was detected in controls using KLH as antigen. (FIG. 2C) IFN-γ spots were detected in IVS cells (1×10^5 cells loaded) from cancer patients (#816463 and #618329: blood collected 6 months after surgery) but not in a breast cancer patient with invasive ductal carcinoma (#814349, collected 6 months after surgery) or a patient (717335) with a mass (no malignancy identified), stimulated one time with either HERV-K SU (surface domain of env protein) or TM (transmembrane domain) protein. DC pulsed with KLH served as control. […]

Substance	granzyme B release [1]	IL-2 release [2]	IFN-γ release ([3]; peripheral T cells from both healthy subjects (ND1007083) and cancer patients (BC 243))	IFN-γ release (OD values) [3]	IFN-γ release ([3]; peripheral T cells from most cancer patients (OC222, OC210, OC212, BC 243))	number of IFN-γ spots in IVS cells [4]
IINLILILVCLFCLLLVCRCTQQLR [Peptide #18-135]	to a greater extent than in 3 normal donors	in normal donors to a greater extent than in cancer patients	induce IFN-γ release	Higher IFN-γ release	–	–
SQTITCENCRLLSCIDSTFNWQHRILL [Peptide #73-76]	to a greater extent than in 3 normal donors	in normal donors to a greater extent than in cancer patients	–	Higher IFN-γ release	induce IFN-γ release	–
keyhole limpet hemocyanin [KLH]	–	–	–	–	–	No spots were detected
